Columns and labels:
[1] = target: T1, GST-LXRβ ligand-binding domain (Homo sapiens, UniProt P55055); assay: TR-FRETβ activity assay (NCoA3 coactivator peptide recruitment); type: biochemical; settings: 1 μM 24(S)-25-epoxycholesterol prestimulation
T1 construct: amino acids 156-461; NP009052; made in house; host or cells: E. coli
T1 sequence (P55055 156-460 limits assumed): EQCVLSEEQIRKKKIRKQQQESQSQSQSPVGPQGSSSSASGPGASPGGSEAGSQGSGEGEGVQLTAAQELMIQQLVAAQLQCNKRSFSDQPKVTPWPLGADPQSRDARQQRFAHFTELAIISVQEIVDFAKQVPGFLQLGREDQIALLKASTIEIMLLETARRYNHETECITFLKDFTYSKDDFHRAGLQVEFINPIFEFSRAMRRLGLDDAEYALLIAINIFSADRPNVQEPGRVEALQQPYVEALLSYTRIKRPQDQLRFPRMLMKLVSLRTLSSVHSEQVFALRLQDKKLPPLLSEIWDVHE
Description: Recombinant GST-LXRβ ligand-binding domain (LBD; amino acids 156-461; NP009052; SEQ ID NO:4) was expressed in E. coli and purified via gluthatione-sepharose affinity chromatography. N-terminally biotinylated NCoA3 coactivator peptide (SEQ ID NO:7) was chemically synthesized (Eurogentec). Assays were done in 384 well format (final assay volume of 25 μL/well) in a Tris/HCl buffer (pH 6.8) containing KCl, bovine serum albumin, Triton-X-100 and 1 μM 24(S)-25-epoxycholesterol as LXR-prestimulating agonist. Assay buffer was provided and test articles (potential LXR inverse agonists) were titrated to yield final assay concentrations of 50 μM, 16.7 μM, 5.6 μM, 1.9 μM, 0.6 μM, 0.2 μM, 0.07 μM, 0.02 μM, 0.007 μM, 0.002 μM with one vehicle control. Finally, a detection mix was added containing anti GST-Tb cryptate (CisBio; 610SAXLB) and Streptavidin-XL665 (CisBio; 610SAXLB) as fluorescent donor and acceptor, respectively, as well as the coactivator peptide and LXRβ-LBD protein (SEQ ID NO:4). The reaction was mixed thoroughly, equilibrated for 1 h at 4° C. and vicinity of LXRβ and coactivator peptide was detected by measurement of fluorescence in a VictorX4 multiplate reader (PerkinElmer Life Science) using 340 nm as excitation and 615 and 665 nm as emission wavelengths. Assays were performed in triplicates.
240 mM KCl, 1 μg/μL BSA, 0.002% Triton-X-100, […] anti GST-Tb cryptate, 2.5 ng/μL Streptavidin-XL665, coactivator peptide (400 nM), LXRβ protein (530 μg/mL, i.e. 76 nM).

LXRβ = target: T2, LXRβ (Homo sapiens, UniProt P55055); assay: LXR Gal4 reporter transient transfection assay (mammalian two-hybrid, HEK293), LXRβ; type: cell-based; parameters: LXRβ (amino acids 156-461); expressed in transfected cells; host or cells: HEK293; settings: full length (FL) LXRβ, HEK293; read-out: FL-M2H Gal4β
T2 sequence (P55055 1-460): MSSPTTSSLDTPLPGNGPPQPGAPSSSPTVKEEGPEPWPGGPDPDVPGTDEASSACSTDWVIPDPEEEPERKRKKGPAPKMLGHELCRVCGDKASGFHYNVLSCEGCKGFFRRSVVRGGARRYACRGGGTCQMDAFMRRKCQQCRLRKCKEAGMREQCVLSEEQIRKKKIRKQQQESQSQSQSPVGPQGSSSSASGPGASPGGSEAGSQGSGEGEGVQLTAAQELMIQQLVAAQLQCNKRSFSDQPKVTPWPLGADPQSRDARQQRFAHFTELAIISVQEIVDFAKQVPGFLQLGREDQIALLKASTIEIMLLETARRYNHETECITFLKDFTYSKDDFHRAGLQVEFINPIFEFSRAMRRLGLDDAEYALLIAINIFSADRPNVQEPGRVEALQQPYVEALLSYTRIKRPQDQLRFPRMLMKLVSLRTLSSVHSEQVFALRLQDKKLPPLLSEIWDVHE
Description: LXRα and LXRβ activity status was determined via detection of interaction with coactivator and corepressor proteins in mammalian two-hybrid experiments (M2H). For this, via transient transfection the full length (FL) proteins of LXRα (amino acids 1-447; NP005684; SEQ ID NO:1) or LXRβ-(amino acids 1-461; NP009052; SEQ ID NO:2) or the ligand-binding domains (LBD) of LXRα (amino acids 155-447 SEQ ID NO:3) or LXRβ (amino acids 156-461; SEQ ID NO:4) were expressed from pCMV-AD (Stratagene) as fusions to the transcriptional activation domain of NFkB. As cofactors, domains of either the steroid receptor coactivator 1 (SRC1; amino acids 552-887; SEQ ID NO:5) or of the corepressor NCoR (amino acids 1906-2312; NP006302; SEQ ID NO:6) were expressed as fusions to the DNA binding domain of the yeast transcription factor GAL4 (from pCMV-BD; Stratagene). Interaction was monitored via activation of a coexpressed Firefly Luciferase Reporter gene under control of a promoter containing repetitive GAL4 response elements (vector pFRLuc; Stratagene). Transfection efficiency was controlled via cotransfection of constitutively active pRL-CMV Renilla reniformis luciferase reporter (Promega). HEK293 cells were grown in minimum essential medium (MEM) with 2 mM L-glutamine and Earle's balanced salt solution supplemented with 8.3% fetal bovine serum, 0.1 mM non-essential amino acids, 1 mM sodium pyruvate, at 37° C. in 5% CO2. 3.5×10^4 cells/well were plated in 96-well cell culture plates in growth medium supplemented with 8.3% fetal bovine serum for 16-20 h to ˜90% confluency. For transfection, medium was taken off and LXR and cofactor expressing plasmids as well as the reporter plasmids are added in 30 μL OPTIMEM/well including polyethylene-imine (PEI) as vehicle. Typical amounts of plasmids transfected/well: pCMV-AD-LXR (5 ng), pCMV-BD-cofactor (5 ng), pFR-Luc (100 ng), pRL-CMV (0.5 ng). Compound stocks were prepared in DMSO, prediluted in MEM to a total volume of 120 μL, and added 4 h after addition of the transfection mixture (final vehicle concentration not exceeding 0.2%). Cells were incubated for additional 16 h, lysed for 10 min in 1×Passive Lysis Buffer (Promega) and Firefly and Renilla luciferase activities were measured sequentially in the same cell extract using buffers containing D-luciferine and coelenterazine, respectively. Measurements of luminescence were done in a BMG-luminometer.
The potencies of Compound 21/3 and its analog, Compound pre-6/3, against LXRα and LXRβ were evaluated in biochemical binding assays, cellular mammalian two-hybrid (M2H) interaction assays evaluating nuclear receptor co-repressor (NCOR) recruitment, and cellular reporter assays evaluating transcriptional activity (Table 5).

SMILES | EC50 [1] | EC50 (LXRβ)
Cc1ccc(S(=O)(=O)n2c(-c3cccc(-c4cc(C(=O)O)n[nH]4)c3)c(-c3ccsc3C#N)c3cc(F)ccc32)cc1 [12/6] | 1000 to 10000 nM | 1000 to 10000 nM
Cc1ccc(S(=O)(=O)n2c(-c3cccc(C4CC4C(=O)O)c3)c(-c3ccsc3C#N)c3cccnc32)cc1 (stereo not drawn) [4/2] | 1000 to 10000 nM | 100 to 1000 nM
Cc1ccc(S(=O)(=O)n2c(-c3ccnc(-c4ccc(C(=O)O)cc4)c3)c(-c3ccsc3C#N)c3cc(F)ccc32)cc1 [5/6] | 100 to 1000 nM | < 100 nM
Cc1ccc(S(=O)(=O)n2c(-c3cccc(N4CC(C(=O)O)C4)c3)c(-c3ccsc3/C=N/O)c3cc(F)ccc32)cc1 [3/7] | 1000 to 10000 nM | < 100 nM
Cc1ccc(S(=O)(=O)n2c(-c3cccc(C4CC4C(=O)O)c3)c(-c3ccsc3C#N)c3ncccc32)cc1 (stereo not drawn) [Compound 4] | 1000 to 10000 nM | 100 to 1000 nM
COc1cc(F)cc2c(-c3ccsc3C#N)c(-c3cccc(-c4ccc(C(=O)O)cc4)c3)n(S(=O)(=O)c3ccc(C)cc3)c12 [3/53] | < 100 nM | < 100 nM
Cc1cccc(C(F)F)c1-c1c(-c2cccc(-c3ccc(C(=O)O)cc3Cl)c2)n(S(=O)(=O)c2ccc(C(F)F)cc2)c2ccc(F)cc12 [11/38] | < 100 nM | < 100 nM
Cc1ccc(S(=O)(=O)n2c(-c3cccc(-c4ccc(C(=O)O)c(C)c4Cl)c3)c(-c3ccsc3C#N)c3cc(F)ccc32)cc1 [12/1] | 100 to 1000 nM | < 100 nM
Cc1ccc(S(=O)(=O)n2c(-c3cccc(-c4ccc(C(=O)O)cc4)c3)c(-c3ccsc3C#N)c3cc(F)cc(O)c32)cc1 [3/54] | 100 to 1000 nM | < 100 nM
O=C(O)c1ccc(-c2cccc(-c3c(-c4ccsc4C(F)(F)F)c4cc(F)ccc4n3S(=O)(=O)c3ccc(C(F)F)cc3)c2)c(Cl)c1 [11/22] | < 100 nM | < 100 nM
COc1sccc1-c1c(-c2cccc(N3CC(C(=O)O)C3)c2)n(S(=O)(=O)c2ccc(C)cc2)c2ccc(F)cc12 [3/3] | 1000 to 10000 nM | 100 to 1000 nM
Cn1cccc(-c2c(-c3cccc(-c4ccc(C(=O)O)cc4Cl)c3)n(S(=O)(=O)c3ccc(C(F)F)cc3)c3ccc(F)cc23)c1=O [11/47] | 100 to 1000 nM | 100 to 1000 nM
Cc1ccc(S(=O)(=O)n2c(-c3cccc(-c4ccc(CN(C)C)cc4)c3)c(-c3ccsc3C#N)c3cc(F)ccc32)cc1 [8/1] | 100 to 1000 nM | < 100 nM
N#Cc1ccccc1-c1c(-c2cccc(-c3ccc(C(=O)O)c4c3OCO4)c2)n(S(=O)(=O)c2ccc(C(F)F)cc2)c2ccc(F)cc12 [11/28] | < 100 nM | < 100 nM
N#Cc1sccc1-c1c(-c2cccc(-c3ccc(C(=O)O)cc3)c2)n(S(=O)(=O)c2ccc3c(c2)CCC3)c2ccc(F)cc12 [23/3] | 100 to 1000 nM | < 100 nM
COC(=O)c1ccc(-c2cccc(-c3c(-c4c(C)cccc4C#N)c4cc(F)ccc4n3S(=O)(=O)c3ccc(C(F)F)cc3)c2)c(Cl)c1 [1/122] | 100 to 1000 nM | < 100 nM
N#Cc1cccc(C#N)c1-c1c(-c2cccc(-c3ccc(C(=O)O)cc3Cl)c2)n(S(=O)(=O)C2CC3CCC2C3)c2ccc(F)cc12 (stereo not drawn) [11/66] | 100 to 1000 nM | < 100 nM
N#Cc1sccc1-c1c(-c2cccc(-c3ccc(C(=O)O)cc3Cl)c2)n(S(=O)(=O)c2ccc(C(F)F)nc2)c2ccc(F)cc12 [11/57] | < 100 nM | < 100 nM
Cc1ccc(S(=O)(=O)n2c(-c3cccc(C4CC5(CC(C(=O)O)C5)C4)c3)c(-c3ccsc3C#N)c3cc(F)ccc32)cc1 (stereo not drawn) [3/65] | 100 to 1000 nM | < 100 nM
N#Cc1cccc(C#N)c1-c1c(-c2cccc(C34CCC(C(=O)O)(CC3)CC4)c2)n(S(=O)(=O)c2ccc(C(F)F)cc2)c2ccc(F)cc12 [11/58] | < 100 nM | < 100 nM
Cc1ccc(S(=O)(=O)n2c(-c3cccc(-c4cc(C(=O)O)nn4C)c3)c(-c3ccsc3C#N)c3cc(F)ccc32)cc1 [12/7] | 100 to 1000 nM | 100 to 1000 nM
COc1cc(-c2cccc(-c3c(-c4ccsc4C#N)c4cc(F)ccc4n3S(=O)(=O)c3ccc(C)cc3)c2)c(Cl)cc1C(=O)O [12/4] | 100 to 1000 nM | < 100 nM
O=C(O)c1ccc(-c2cccc(-c3c(-c4cn[nH]c4C(F)(F)F)c4cc(F)ccc4n3S(=O)(=O)c3ccc(C(F)F)cc3)c2)c(Cl)c1 [11/25] | 100 to 1000 nM | < 100 nM
Cn1ccc(-c2c(-c3cccc(-c4ccc(C(=O)O)cc4Cl)c3)n(S(=O)(=O)c3ccc(C(F)F)cc3)c3ccc(F)cc23)c1C#N [11/68] | < 100 nM | < 100 nM
O=C(O)c1ccc(-c2cccc(-c3c(-c4ccccc4C4COC4)c4cc(F)ccc4n3S(=O)(=O)c3ccc(Cl)cc3)c2)c(Cl)c1 [3/56] | < 100 nM | < 100 nM
Cc1ccc(S(=O)(=O)n2c(-c3cccc(-c4ccc(C(=O)O)cc4Cl)c3)c(-c3ccsc3C#N)c3cc(F)ccc32)cc1F [11/19] | 100 to 1000 nM | < 100 nM
Cc1ccc(S(=O)(=O)n2c(-c3cccc(N4CC(C(=O)O)C4)c3)c(-c3sccc3C#N)c3cc(F)ccc32)cc1 [3/25] | 1000 to 10000 nM | < 100 nM
Cc1ccc(S(=O)(=O)n2c(-c3cccc(N4CC(C(=O)O)C4)c3)c(-c3ccsc3C(=O)N(C)C)c3cc(F)ccc32)cc1 [3/28] | > 10000 nM | 1000 to 10000 nM
Cc1ccc(S(=O)(=O)n2c(-c3cccc(N4CC(C(=O)NC(C)(C)C(=O)O)C4)c3)c(-c3ccsc3C#N)c3cc(F)ccc32)cc1 [3/52] | 100 to 1000 nM | 100 to 1000 nM
Cc1ccc(S(=O)(=O)n2c(-c3cccc(C4(C)CC4C(=O)O)c3)c(-c3ccsc3C#N)c3cc(F)ccc32)cc1 (stereo not drawn) [3/1] | 100 to 1000 nM | 100 to 1000 nM
